Read-outs that look alike come from different tables or passages of the source.
Assays:
Assay in all cases: biochemical
Design in all cases: Reaction Biology 371-kinase panel at Km ATP, per cent enzyme activity relative to DMSO, single dose in duplicate
CAMK2g = CAMK2g (Homo sapiens, UniProt Q13555); conditions: duplicate measurements, Km ATP
Summary of the method: (§1)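 Compound screened at 300 nM in vitro across a 371-kinase panel. Enzyme activity expressed as % of DMSO controls. IC50 values came from sigmoidal variable-slope dose-response fits with the bottom fixed at 0.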

EPHA3 = EPHA3 (Homo sapiens, UniProt P29320); conditions: duplicate measurements, Km ATP
Summary of the method: as §1

AKT1 = AKT1 (Homo sapiens, UniProt P31749); conditions: duplicate measurements, Km ATP; read-out: % Enzyme Activity (relative to DMSO controls) / TP-0005801 (0.3µM) / Data 1
Summary of the method: as §1

MAST3 = MAST3 (Homo sapiens, UniProt O60307); conditions: duplicate measurements, Km ATP
Summary of the method: as §1

DMPK = DMPK (Homo sapiens, UniProt Q09013); conditions: duplicate measurements, Km ATP
Chain of DMPK (Q09013 whole entry): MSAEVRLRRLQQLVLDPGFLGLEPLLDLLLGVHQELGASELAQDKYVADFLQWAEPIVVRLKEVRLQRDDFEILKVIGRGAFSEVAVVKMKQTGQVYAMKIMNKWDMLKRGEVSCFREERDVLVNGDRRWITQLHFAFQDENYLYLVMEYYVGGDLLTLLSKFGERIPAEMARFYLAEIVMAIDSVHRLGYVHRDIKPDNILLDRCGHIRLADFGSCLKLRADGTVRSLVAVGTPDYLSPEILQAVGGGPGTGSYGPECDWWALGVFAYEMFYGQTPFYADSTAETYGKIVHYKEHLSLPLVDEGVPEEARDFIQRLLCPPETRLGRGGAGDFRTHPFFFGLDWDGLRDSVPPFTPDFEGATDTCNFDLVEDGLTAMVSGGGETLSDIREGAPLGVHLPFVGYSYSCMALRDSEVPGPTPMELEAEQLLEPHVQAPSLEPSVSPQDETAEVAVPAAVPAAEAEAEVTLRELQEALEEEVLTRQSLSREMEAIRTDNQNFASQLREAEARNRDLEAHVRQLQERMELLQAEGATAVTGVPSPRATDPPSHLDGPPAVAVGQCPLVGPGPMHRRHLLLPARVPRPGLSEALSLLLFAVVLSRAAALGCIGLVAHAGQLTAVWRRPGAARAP
Summary of the method: as §1

FES/FPS = FES/FPS (Homo sapiens, UniProt P07332); conditions: duplicate measurements, Km ATP
Summary of the method: as §1

CAMK1b = target: T1, CAMK1b (Homo sapiens, UniProt Q6P2M8); conditions: duplicate measurements, Km ATP
T1 construct: gene PNCK
Summary of the method: as §1

CAMK1a = target: T2, CAMK1a (Homo sapiens, UniProt Q14012); conditions: duplicate measurements, Km ATP
T2 construct: gene CAMK1
T2 sequence (Q14012 whole entry): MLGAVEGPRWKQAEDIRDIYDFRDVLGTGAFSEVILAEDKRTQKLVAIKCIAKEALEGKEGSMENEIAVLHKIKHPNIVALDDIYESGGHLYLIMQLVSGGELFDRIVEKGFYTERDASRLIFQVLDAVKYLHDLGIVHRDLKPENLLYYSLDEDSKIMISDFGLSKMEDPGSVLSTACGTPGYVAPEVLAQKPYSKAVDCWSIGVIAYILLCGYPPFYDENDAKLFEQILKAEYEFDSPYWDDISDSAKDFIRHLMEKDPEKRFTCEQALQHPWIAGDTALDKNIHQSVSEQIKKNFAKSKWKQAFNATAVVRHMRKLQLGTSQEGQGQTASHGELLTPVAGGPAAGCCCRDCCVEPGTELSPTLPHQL
Summary of the method: as §1

CAMK2b = CAMK2b (Homo sapiens, UniProt Q13554); conditions: duplicate measurements, Km ATP
Summary of the method: as §1

DYRK4 = target: T3, DYRK4 (Homo sapiens, UniProt Q9NR20); conditions: duplicate measurements, Km ATP
T3 sequence (Q9NR20 1-520): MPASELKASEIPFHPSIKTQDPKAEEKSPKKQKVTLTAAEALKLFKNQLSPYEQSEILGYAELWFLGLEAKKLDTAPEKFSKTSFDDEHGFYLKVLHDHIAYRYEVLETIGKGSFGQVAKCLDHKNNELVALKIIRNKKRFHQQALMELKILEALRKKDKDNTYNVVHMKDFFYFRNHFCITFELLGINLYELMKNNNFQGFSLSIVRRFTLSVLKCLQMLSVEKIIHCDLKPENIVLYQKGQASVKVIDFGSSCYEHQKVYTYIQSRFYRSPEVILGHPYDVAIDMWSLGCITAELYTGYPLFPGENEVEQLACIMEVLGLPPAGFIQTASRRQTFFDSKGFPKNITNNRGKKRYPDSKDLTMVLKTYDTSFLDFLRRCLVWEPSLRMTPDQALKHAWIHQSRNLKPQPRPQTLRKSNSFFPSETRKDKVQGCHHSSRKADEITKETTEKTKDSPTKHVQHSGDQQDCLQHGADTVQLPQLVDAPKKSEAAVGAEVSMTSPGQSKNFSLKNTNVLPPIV
Summary of the method: as §1

FGR = FGR (Homo sapiens, UniProt P09769); conditions: duplicate measurements, Km ATP
Chain of FGR (P09769 whole entry): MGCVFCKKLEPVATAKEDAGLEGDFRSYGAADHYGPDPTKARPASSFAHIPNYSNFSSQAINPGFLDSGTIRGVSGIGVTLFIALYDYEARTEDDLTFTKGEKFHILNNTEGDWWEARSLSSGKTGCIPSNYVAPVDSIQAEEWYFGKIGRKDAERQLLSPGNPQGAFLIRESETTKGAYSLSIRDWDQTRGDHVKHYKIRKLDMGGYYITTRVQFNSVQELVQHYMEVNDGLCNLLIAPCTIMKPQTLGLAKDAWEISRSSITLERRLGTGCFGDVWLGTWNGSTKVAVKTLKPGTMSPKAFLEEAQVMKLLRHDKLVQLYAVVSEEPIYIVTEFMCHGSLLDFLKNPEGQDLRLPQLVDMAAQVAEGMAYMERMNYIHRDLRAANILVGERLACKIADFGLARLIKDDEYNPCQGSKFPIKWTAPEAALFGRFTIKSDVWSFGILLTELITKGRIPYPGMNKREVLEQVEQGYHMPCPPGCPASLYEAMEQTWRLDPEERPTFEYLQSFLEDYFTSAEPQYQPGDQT
Summary of the method: as §1

CK1a1 = target: T4, CK1a1 (Homo sapiens, UniProt P48729); conditions: duplicate measurements, Km ATP
T4 construct: gene CSNK1A1
T4 sequence (P48729 whole entry): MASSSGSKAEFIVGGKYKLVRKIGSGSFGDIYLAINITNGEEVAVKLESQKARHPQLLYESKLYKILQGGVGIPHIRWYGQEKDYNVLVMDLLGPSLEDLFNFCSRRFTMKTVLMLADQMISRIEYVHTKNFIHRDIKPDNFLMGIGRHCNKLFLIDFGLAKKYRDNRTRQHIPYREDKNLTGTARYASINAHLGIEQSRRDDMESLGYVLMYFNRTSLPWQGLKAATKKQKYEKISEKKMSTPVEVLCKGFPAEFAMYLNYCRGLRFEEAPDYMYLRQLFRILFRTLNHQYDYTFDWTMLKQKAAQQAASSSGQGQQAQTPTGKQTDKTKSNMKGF
Summary of the method: as §1

EPHA6 = EPHA6 (Homo sapiens, UniProt Q9UF33); conditions: duplicate measurements, Km ATP
Chain of EPHA6 (Q9UF33 whole entry): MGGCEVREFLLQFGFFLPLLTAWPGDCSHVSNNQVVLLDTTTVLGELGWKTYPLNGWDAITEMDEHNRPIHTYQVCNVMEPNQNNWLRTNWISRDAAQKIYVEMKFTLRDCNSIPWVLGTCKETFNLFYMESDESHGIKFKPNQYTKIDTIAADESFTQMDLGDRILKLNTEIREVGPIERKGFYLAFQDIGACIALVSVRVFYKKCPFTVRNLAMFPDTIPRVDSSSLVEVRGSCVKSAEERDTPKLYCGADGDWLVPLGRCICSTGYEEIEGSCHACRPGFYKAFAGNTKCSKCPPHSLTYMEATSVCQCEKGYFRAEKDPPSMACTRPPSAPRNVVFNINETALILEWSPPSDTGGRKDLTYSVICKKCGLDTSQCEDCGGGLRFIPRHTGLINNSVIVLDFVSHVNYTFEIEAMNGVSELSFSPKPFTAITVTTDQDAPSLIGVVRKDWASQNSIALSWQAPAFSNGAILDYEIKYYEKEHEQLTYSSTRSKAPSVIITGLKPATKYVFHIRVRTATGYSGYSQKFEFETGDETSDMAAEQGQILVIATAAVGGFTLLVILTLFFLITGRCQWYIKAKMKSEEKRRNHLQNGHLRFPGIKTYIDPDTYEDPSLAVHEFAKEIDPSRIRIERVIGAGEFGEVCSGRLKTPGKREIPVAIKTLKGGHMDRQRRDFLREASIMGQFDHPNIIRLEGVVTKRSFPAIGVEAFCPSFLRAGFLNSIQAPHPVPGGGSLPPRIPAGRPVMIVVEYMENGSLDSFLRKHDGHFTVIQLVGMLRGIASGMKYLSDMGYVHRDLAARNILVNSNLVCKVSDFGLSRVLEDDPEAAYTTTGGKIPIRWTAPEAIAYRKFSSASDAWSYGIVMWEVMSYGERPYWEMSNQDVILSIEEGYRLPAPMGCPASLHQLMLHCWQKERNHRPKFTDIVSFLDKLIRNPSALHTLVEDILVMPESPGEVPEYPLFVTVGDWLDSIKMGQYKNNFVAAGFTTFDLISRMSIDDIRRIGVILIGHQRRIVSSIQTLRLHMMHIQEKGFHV
Summary of the method: as §1

SIK1 = SIK1 (Homo sapiens, UniProt P57059); conditions: duplicate measurements, Km ATP
Chain of SIK1 (P57059 whole entry): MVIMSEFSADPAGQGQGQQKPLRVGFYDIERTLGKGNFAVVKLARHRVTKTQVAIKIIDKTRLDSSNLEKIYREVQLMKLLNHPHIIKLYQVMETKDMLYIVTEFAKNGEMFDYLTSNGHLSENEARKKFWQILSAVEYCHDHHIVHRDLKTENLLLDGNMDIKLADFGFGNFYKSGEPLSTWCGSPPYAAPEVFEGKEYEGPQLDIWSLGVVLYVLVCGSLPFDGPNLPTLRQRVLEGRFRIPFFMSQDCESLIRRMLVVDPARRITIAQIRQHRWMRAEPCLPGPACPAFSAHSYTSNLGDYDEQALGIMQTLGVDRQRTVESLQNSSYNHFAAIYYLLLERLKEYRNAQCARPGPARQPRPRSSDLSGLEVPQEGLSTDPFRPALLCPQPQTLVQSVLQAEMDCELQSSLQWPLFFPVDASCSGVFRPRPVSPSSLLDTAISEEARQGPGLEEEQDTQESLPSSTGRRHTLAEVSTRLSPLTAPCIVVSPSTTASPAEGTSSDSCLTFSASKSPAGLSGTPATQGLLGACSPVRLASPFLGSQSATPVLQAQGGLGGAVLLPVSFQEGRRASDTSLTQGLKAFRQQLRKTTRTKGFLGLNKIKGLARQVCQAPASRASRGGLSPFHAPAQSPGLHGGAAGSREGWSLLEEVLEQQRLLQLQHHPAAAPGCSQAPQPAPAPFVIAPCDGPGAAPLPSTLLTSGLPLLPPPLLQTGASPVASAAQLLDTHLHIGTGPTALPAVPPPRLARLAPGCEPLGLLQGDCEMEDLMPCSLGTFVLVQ
Summary of the method: as §1

ERN2/IRE2 = ERN2/IRE2 (Homo sapiens, UniProt Q76MJ5); conditions: duplicate measurements, Km ATP
Summary of the method: as §1

MARK1 = MARK1 (Homo sapiens, UniProt Q9P0L2); conditions: duplicate measurements, Km ATP
Chain of MARK1 (Q9P0L2 whole entry): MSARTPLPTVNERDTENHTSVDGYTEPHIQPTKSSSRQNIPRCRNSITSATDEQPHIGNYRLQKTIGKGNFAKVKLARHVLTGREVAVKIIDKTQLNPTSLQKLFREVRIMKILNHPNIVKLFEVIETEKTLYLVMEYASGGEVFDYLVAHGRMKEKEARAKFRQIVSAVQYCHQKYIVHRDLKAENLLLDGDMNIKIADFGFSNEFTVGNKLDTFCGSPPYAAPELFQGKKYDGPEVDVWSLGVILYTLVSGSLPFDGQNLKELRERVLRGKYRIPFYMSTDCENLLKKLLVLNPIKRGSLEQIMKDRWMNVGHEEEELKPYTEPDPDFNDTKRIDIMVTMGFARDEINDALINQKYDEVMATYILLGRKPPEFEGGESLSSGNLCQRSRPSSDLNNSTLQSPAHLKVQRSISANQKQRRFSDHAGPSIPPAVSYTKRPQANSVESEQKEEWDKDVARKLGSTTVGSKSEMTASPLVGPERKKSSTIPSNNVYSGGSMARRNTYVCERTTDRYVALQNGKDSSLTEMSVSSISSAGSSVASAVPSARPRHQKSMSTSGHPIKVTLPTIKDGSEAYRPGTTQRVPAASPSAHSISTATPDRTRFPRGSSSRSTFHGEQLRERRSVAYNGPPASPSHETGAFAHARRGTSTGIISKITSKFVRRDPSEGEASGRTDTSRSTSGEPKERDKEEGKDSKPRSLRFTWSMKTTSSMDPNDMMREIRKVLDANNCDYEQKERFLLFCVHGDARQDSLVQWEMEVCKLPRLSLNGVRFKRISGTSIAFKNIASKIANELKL
Summary of the method: as §1

ERK5/MAPK7 = ERK5/MAPK7 (Homo sapiens, UniProt Q13164); conditions: duplicate measurements, Km ATP
Summary of the method: as §1

[1] = read-out: % Enzyme Activity (relative to DMSO controls) / TP-0005801 (0.3µM) / Data 1
[2] = read-out: % Enzyme Activity (relative to DMSO controls) / TP-0005801 (0.3µM) / Data 2

Chain of CAMK2g (Q13555 whole entry): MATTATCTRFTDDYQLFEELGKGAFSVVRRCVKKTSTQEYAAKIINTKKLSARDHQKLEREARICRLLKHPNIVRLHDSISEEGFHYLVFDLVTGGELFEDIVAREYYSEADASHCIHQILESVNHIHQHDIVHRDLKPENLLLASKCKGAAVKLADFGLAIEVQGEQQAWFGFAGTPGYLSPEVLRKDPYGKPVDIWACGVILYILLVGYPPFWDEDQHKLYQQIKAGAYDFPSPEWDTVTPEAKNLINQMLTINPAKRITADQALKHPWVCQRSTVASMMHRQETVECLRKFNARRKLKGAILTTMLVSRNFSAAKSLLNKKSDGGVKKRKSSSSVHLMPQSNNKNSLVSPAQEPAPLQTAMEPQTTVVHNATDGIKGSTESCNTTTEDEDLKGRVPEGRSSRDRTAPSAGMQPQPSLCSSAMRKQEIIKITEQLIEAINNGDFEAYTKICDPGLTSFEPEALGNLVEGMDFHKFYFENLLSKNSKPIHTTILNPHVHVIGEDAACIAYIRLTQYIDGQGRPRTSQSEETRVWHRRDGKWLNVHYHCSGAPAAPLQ

With `COc1cc(N2CCN(C)CC2)c(C)cc1Nc1ncc(Br)c(Nc2cccnc2N(C)C)n1` [TP-5801] the remaining activity at 0.3 µM (CAMK2g; [1]) was 157%, the remaining activity at 0.3 µM (CAMK2g; [2]) was 153% and the remaining activity at 0.3 µM (EPHA3; [1]) was 103%. For the same molecule, the remaining activity at 0.3 µM (EPHA3; [2]) was 97.5%, the remaining activity at 0.3 µM (AKT1) was 105% and the remaining activity at 0.3 µM (MAST3; [1]) was 101%. It also gave a remaining activity at 0.3 µM (MAST3; [2]) of 100%, a remaining activity at 0.3 µM (DMPK; [1]) of 102% and a remaining activity at 0.3 µM (DMPK; [2]) of 101%. For the same molecule, the remaining activity at 0.3 µM (FES/FPS; [1]) was 18.2%, the remaining activity at 0.3 µM (FES/FPS; [2]) was 17.6% and the remaining activity at 0.3 µM (CAMK1b; [1]) was 119%. For the same molecule, the remaining activity at 0.3 µM (CAMK1b; [2]) was 114%, the remaining activity at 0.3 µM (CAMK1a; [1]) was 92.6% and the remaining activity at 0.3 µM (CAMK1a; [2]) was 91.5%. The remaining activity at 0.3 µM (CAMK2b; [1]) was 64.8%, the remaining activity at 0.3 µM (CAMK2b; [2]) was 64% and the remaining activity at 0.3 µM (DYRK4; [1]) was 104%. For the same molecule, the remaining activity at 0.3 µM (DYRK4; [2]) was 99.2%, the remaining activity at 0.3 µM (FGR; [1]) was 109% and the remaining activity at 0.3 µM (FGR; [2]) was 105%. It also gave a remaining activity at 0.3 µM (CK1a1; [1]) of 94.3%, a remaining activity at 0.3 µM (CK1a1; [2]) of 93.1% and a remaining activity at 0.3 µM (EPHA6; [1]) of 103%. It also gave a remaining activity at 0.3 µM (EPHA6; [2]) of 98.6%, a remaining activity at 0.3 µM (SIK1; [1]) of 94.2% and a remaining activity at 0.3 µM (SIK1; [2]) of 92.8%. It also gave a remaining activity at 0.3 µM (ERN2/IRE2; [1]) of 52.8%, a remaining activity at 0.3 µM (ERN2/IRE2; [2]) of 51.5% and a remaining activity at 0.3 µM (MARK1; [1]) of 101%. For the same molecule, the remaining activity at 0.3 µM (MARK1; [2]) was 99.2%, the remaining activity at 0.3 µM (ERK5/MAPK7; [1]) was 91.6% and the remaining activity at 0.3 µM (ERK5/MAPK7; [2]) was 90.9%.

— PMC8429728, “TNK1 is a ubiquitin-binding and 14-3-3-regulated kinase that can be targeted to block tumor growth” (Nature Communications, 2021)
